Measured values reported in patent US20200407717A1, “METHODS OF MODULATING ANTISENSE ACTIVITY” (Ionis Pharmaceuticals, Inc., priority 2018, published 2020).

What was measured:
Assay type in all cases: cell-based
A431 cells [1] = assay: Immunofluorescent microscopy co-localization
Experimental: Immunofluorescent staining was used to visualize clathrin, EGFR, and PS-ASOs in A431 cells. Compound no. 446654 has the sequence and structure Cy3-^mCesTesGes^mCesTesAdsGds^mCdsTds^mCdsTdsGdsGdsAdsTesTesTesGesAe (SEQ ID NO: 10). Cells were incubated with FITC labeled epidermal growth factor (EGF) or unlabeled EGF and compound no. 446654 for 30 minutes, then fixed with 4% paraformaldehyde for 20 minutes at room temperature and permeabilized with 0.05% saponin (Sigma) in PBS for 5 minutes. Cells were treated with blocking buffer (1 mg/mL BSA in PBS) for 30 minutes and then incubated with primary antibodies at room temperature for 2-4 hours or at 4° C. overnight. Primary antibodies used were ab30 (Abcam) for EGFR, ab21679 (Abcam) for clathrin, and antibody 610456 (BD Bioscience) for early endosome antigen 1 (EEA1). After three washes with PBS, cells were fluorescently labeled with secondary antibodies at room temperature for 1-2 hours. Secondary antibodies used were anti-mouse conjugated to AF488 (ab150077, Abcam) or AF647 (ab150079, Abcam), and anti-rabbit conjugated to AF488 (ab150113, Abcam) or AF647 (ab150115, Abcam). Nuclei were labeled with Hoechst 33342. Cells were then visualized with a confocal microscope (Olympus FV-1000), and single slices and Z-stack images were obtained. Co-localization between PS-ASOs and different organelles was analyzed using FV10-ASW 3.0 viewer software.

HEK cells = assay: Uptake by flow cytometry, HEK cells
Experimental: Uptake of compound no. 446654 by A431 cells was measured by flow cytometry. A431 cells were treated with a growth factor for 4 hours prior to incubation with compound no. 446654 for 2 hours. Results are presented in the tables below as relative fluorescence units (RFU) and represent an average of three independent experiments.
Uptake of compound no. 446654 was measured via flow cytometry, as in Example 8, in HEK cells overexpressing EGFR and wild type HEK cells.

A431 cells [2] = assay: Localization in early and late endosomes after siRNA treatment; conditions: 20 cells; for % ASO EE/Total ASO: early endosomes (EEA1); for % ASO LE/Total ASO: late endosomes (LAMP1)
Experimental: EGFR levels in A431 cells were reduced using two siRNAs targeting EGFR, Assay ID 42833 and Assay ID 644 (ThermoFisher). A siRNA targeting luciferase was used for a control. Treatment of cells with the EGFR siRNA reduced EGFR protein levels more than 80%. Following siRNA treatment, cells were treated with additional compounds to test for antisense compound localization, activity, or uptake, as described below.
Following siRNA treatment, cells were treated with compound no. 446654 for two hours. EEA1 was labeled as in Example 2 and LAMP1 was labeled with an antibody. EEA1 is a marker for early endosomes and LAMP1 is a marker for late endosomes. Co-localization of compound no. 446654 with EEA1 and with LAMP1 was observed. The number of 446654 loci co-localized with EEA1 or LAMP1 was counted in 20 cells, and compared to the total number of 446654 loci. The difference observed with control siRNA treatment vs EGFR siRNA treatment shown in Table 22 is significant, as determined by the student T-test (p<0.05), whereas the difference shown in Table 23 was not determined to be significant by the student T-test.

EGFR = assay: Microscopy of EGF-induced internalization and recycling of EGFR; conditions: with EGF, 16 hours
Experimental: Microscopy studies were also carried out to evaluate the EGF-induced internalization and recycling of EGFR in the presence of Cy3-labeled PS-ASO, compound no. 446654. Cells were treated with EGF alone or EGF and compound no. 446654 for 16 hours. The cells were then either immediately stained and imaged, or the EGF and, if applicable, compound no. 446654 were removed for two hours prior to staining and imaging. Staining and imaging were performed as described above. […] Two hours after removal of EGF, cells show EGFR staining primarily in the plasma membrane. […] Two hours after removal of EGF and/or compound no. 446654, the Cy3 signal remained diffuse throughout the cytoplasm, while EGFR staining primarily localized to the plasma membrane.

[3] = FITC-EGF, 30 minutes, EGFR and clathrin antibodies
[4] = FITC-EGF, EGFR and EEA1 antibodies
[5] = unlabeled EGF, 30 minutes, EGFR and clathrin antibodies
[6] = unlabeled EGF, EGFR and EEA1 antibodies

## Cy3-^mCesTesGes^mCesTesAdsGds^mCdsTds^mCdsTdsGdsGdsAdsTesTesTesGesAe (antisense CTGCTAGCCTCTGGATTTGA; listed as DNA, chemistry not fully specified) [compound 446654, Cy3-labeled PS-ASO]
A431 cells [1]; [3]
  co-localization with EGF: observed within the cytoplasm and at the cell surface
  co-localization with clathrin: observed at the cell surface
A431 cells [1]; [4]
  co-localization with EEA1: observed within the cytoplasm
  co-localization with EGF: observed both at the cell surface and within the cytoplasm
A431 cells [1]; [5]
  co-localization with EGFR: observed both at the cell surface and within the cytoplasm
  co-localization with clathrin: observed at the cell surface
A431 cells [1]; [6]
  co-localization with EEA1: observed in the cytoplasm and within the nucleus
  co-localization with EGFR: observed at the cell surface, in the cytoplasm, and within the nucleus
HEK cells; 0.25 μM, Overexpressing EGFR
  RFU: 123 RFU
HEK cells; 0.25 μM, Wild type HEK cells
  RFU: 109 RFU
HEK cells; 0.5 μM, Overexpressing EGFR
  RFU: 163 RFU
HEK cells; 0.5 μM, Wild type HEK cells
  RFU: 143 RFU
HEK cells; 1 μM, Overexpressing EGFR
  RFU: 255 RFU
HEK cells; 1 μM, Wild type HEK cells
  RFU: 287 RFU
HEK cells; HEK cells overexpressing EGFR vs wild type
  uptake, effect of varying EGFR expression levels: did not affect
A431 cells [2]; Control luciferase siRNA
  % ASO EE/Total ASO: 15%
  % ASO LE/Total ASO: 79%
A431 cells [2]; EGFR siRNA-1
  % ASO EE/Total ASO: 26%
  % ASO LE/Total ASO: 66%
EGFR
  distribution of the ASO in cells: distributed throughout the cytoplasm
